The nature of this data set: xn = mol fraction of the nth substance listed. The following applies: Liquid, pressure decay method, x1 = 0.

We go through three molecules from the NIST ThermoML archive (doi:10.1016/j.jct.2018.04.004).

As to `FC(C(F)(F)F)C(F)(F)F` [1,1,1,2,3,3,3-heptafluoropropane] + CCCCCC[n+]1ccn(C)c1.O=S(=O)([N-]S(=O)(=O)C(F)(F)F)C(F)(F)F, the binary diffusion coefficient (303.15 K, 99.7 kPa) was determined as 2.72e-10 m2/s; the binary diffusion coefficient (313.15 K, 99.6 kPa) was 3.5e-10 m2/s; the binary diffusion coefficient (323.15 K, 97.1 kPa) came to 5.28e-10 m2/s; the binary diffusion coefficient (333.15 K, 105 kPa) is 9.6e-10 m2/s; the binary diffusion coefficient (343.15 K, 104.6 kPa) turned out to be 1.26e-09 m2/s.
For the molecule `FC(F)(F)CC(F)(F)F` [1,1,1,3,3,3-hexafluoropropane] + CCCCCC[n+]1ccn(C)c1.O=S(=O)([N-]S(=O)(=O)C(F)(F)F)C(F)(F)F, the binary diffusion coefficient by setting is: (303.15 K, 86 kPa) 1.55e-10 m2/s; (313.15 K, 85.5 kPa) 2.4e-10 m2/s; (323.15 K, 95.7 kPa) 4.09e-10 m2/s; (333.15 K, 90.1 kPa) 5.96e-10 m2/s; (343.15 K, 90.7 kPa) 8.42e-10 m2/s.
For `FC(F)CC(F)(F)F` [1,1,1,3,3-pentafluoropropane] + CCCCCC[n+]1ccn(C)c1.O=S(=O)([N-]S(=O)(=O)C(F)(F)F)C(F)(F)F, the binary diffusion coefficient runs as follows: (303.15 K, 50.4 kPa) 8.4e-11 m2/s; (313.15 K, 63.9 kPa) 1.22e-10 m2/s; (323.15 K, 69.8 kPa) 2.06e-10 m2/s; (333.15 K, 74.9 kPa) 2.75e-10 m2/s; (343.15 K, 84.6 kPa) 3.47e-10 m2/s.
